Patent US6740680B1, “Pharmaceutical compositions to tetrac and methods of use thereof” (Becton Pharma, Inc., priority 1999, dated 2004)
Where two headings read alike, the source gives them in different places.

Key:
[1] = Tissue concentrations of Tetrac after 125I Tetrac injection; assay type: in vivo, rat; settings: for Calculated tissue concentration of Tetrac: calculated with highest serum Tetrac level (406 pmol/ml)
Experimental: (§1) Monodeiodinase type 1 activity was measured in liver homogenates using 1 μM rT3 and 1 mM DTT with 10 min of incubation, whereas for heart, 0.01 μM rT3 and 10 mM DTT with 1 hour of incubation. Monodeiodinase type 2 activity was measured in brown adipose tissue (BAT) and cerebral cortex using 1 nM rT3, 10 mM DTT and 1 mM propylthiouracil (PTU) with 1 hour of incubation. Protein concentrations were measured by the method of Bradford (Bio-Rad Laboratories GmbH, Munich, Germany) with bovine gammaglobulin as the protein standard. In order to study the effect of circulating Tetrac on the enzyme activities, 2 rats were injected intraperitoneally with 10 μCi ^125I Tetrac and killed 6 hours later. The tissue homogenates were extracted with 3 volumes of ethanol-NH3 (97:3). After 10 minutes centrifugation at 15,000 g, the supernatant was vacuum dried and applied to TLC (Merck 254, Toluol, acetic acid, water: 2:2:1). In order to calculate the tissue concentrations, the highest serum Tetrac levels were used (406 pmol/ml). The calculated tissue concentrations were: liver: 1.9, heart: 2.29 and brain cortex: 0.47 fluol Tetrac/μg protein.

β-MHC mRNA = assay: Northern blot, β-MHC mRNA in heart; assay type: in vivo, rat
Experimental: (§2) Seventy-nine male SIVZ rats were purchased from the breeder (Institut für Labortierkunde des Universität Zürich, Zürich, Switzerland). They were rendered hypothyroid by a single injection of [^131I]Na (100 μCi/rat) and before and throughout the experiment 0.02% 2-mercapto-1-methylimidazol (MMI) was added to drinking water. In order to have an euthyroid control group of similar weight and identical age, 10 rats received only MMI in the drinking water and 2 weeks before implanting the minipumps, MMI was withdrawn. Osmotic minipumps (secretion rate 0.25 μl/hour, duration 14 days) were implanted intraperitoneally (i.p.) 2 months after the injection of [^131I]Na. The minipumps were filled with T4 or Tetrac dissolved in 0.05 N NaOH, 2% BSA and 100,000 cpm [^125I]T4 or [^125I]Tetrac as control of their secretion rates. The infusion lasted 13 days. 0, 1.5, 4.5, 13.5 and 40.5 nmol Tetrac/day/100 g or 0.5, 1.5, 4.5 and 13.5 nmol T4/day/100 g bodyweight (BW) (n=4/dose) were infused. An euthyroid control group was included. The animals were weighed every 2 days. Rats were sacrificed by decapitation and blood was collected and stored at […] until use. Tissues (liver, heart, brown adipose tissue, cerebral cortex and pituitary) were removed rapidly, frozen in liquid nitrogen and stored at […] until use.
Total RNA extraction and Northern Blot hybridization Total RNA was extracted with the method of Chomczynski and Sacchi (Chomczynski, P. and Sacchi, N. Anal. Biochem. (1987) 162: 156-159). […]
The amount of labeled mRNA was quantified by scanning laser densitometry (Phosphorimager, Molecular Dynamics; Sunnyvale, USA). Variations in RNA loading and membrane transfer were corrected by densitometric quantification of a negative photograph of 28S and 18S ribosomal RNA bands from ethidium bromide stained RNA gels. […]

[2] = Serum T3, T4, Triac and Tetrac levels in infused rats; assay type: in vivo; settings: male, SIVZ, rat, intraperitoneal, mean ± SEM, read-out: Serum Tetrac
Experimental: as §2
Hornone assays. Total serum T4, T3, Tetrac, Triac and TSH levels (intra-assay coefficient of variation 7 to 10%, inter-assay coefficient of variation 12 to 15%) were measured using the method of Burger, A., Sakoloff, C., Staeheli, V., Vallotton, M. D., and Ingbar, S. H. Acta. Endocrinol. (Copenh.) 80: 58-69 (1975). Serum TSH measurements were performed with reagents kindly provided by the National Pituitary Program, NIAMDD, NIH (Bethesda, USA). The detection limits were 0.80 ng TSH/ml; 9.5 pmol T4/ml; 0.16 pmol T3/ml; 10 pmol Tetrac/ml and 0.52 pmol Triac/ml.

Monodeiodinase type 1 = Monodeiodinase type 1 activity in liver and heart homogenates of infused rats; assay type: in vivo, rat
Experimental: as §2
Monodeiodinase type 1 and 2 activities. Monodeiodinase type 1 and type 2 activities were determined in tissue homogenates by measuring the release of radioiodide from [^125I]rT3 according to the method of Leonard and Rosenberg (Leonard, J. L. et al. Endocrinology (1980) 106: 444-451).
as §1

hypothyroid rats = assay: Heart weight and heart/body weight in hypothyroid rats infused with Tetrac or T4; assay type: in vivo, rat; settings: for Heart / Heart/BW (%): hypothyroid rats, mean ± SEM; for Heart: continuous minipump infusion
Experimental: as §2

O=C(O)Cc1cc(I)c(Oc2cc(I)c(O)c(I)c2)c(I)c1 [Tetrac, 3,3′,5,5′-tetraiodothyroacetic acid]
Concentration of Tetrac in brain cortex homogenates ([1]; brain cortex homogenates): less than 1 fmol/μg protein | Calculated tissue concentration of Tetrac ([1]; brain cortex): 0.47 fluol Tetrac/μg protein | Calculated tissue concentration of Tetrac ([1]; heart): 2.29 fluol Tetrac/μg protein | Calculated tissue concentration of Tetrac ([1]; liver): 1.9 fluol Tetrac/μg protein | β-MHC mRNA, Tetrac/T4 (activity of Tetrac in % of T4) (β-MHC mRNA): 66% | β-MHC mRNA, adjusted mean (β-MHC mRNA; infused rats, adjusted group mean at the mean Ln (TSH) concentration): 328 arbitrary units | concentration at 13 days ([2]; Tetrac infusion 1.5 nmol/day/100 g BW): 168 ± 16 nM | concentration at 13 days ([2]; Tetrac infusion 4.5 nmol/day/100 g BW): 332 ± 19 nM | concentration at 13 days ([2]; Tetrac infusion 13.5 nmol/day/100 g BW): 458 ± 27 nM | concentration at 13 days ([2]; Tetrac infusion 40.5 nmol/day/100 g BW): 406 ± 57 nM | Residual Monodeiodinase type 1 activity, Tetrac/T4 (activity of Tetrac in % of T4) (Monodeiodinase type 1; Liver, at equal serum TSH concentration): 59% | Residual Monodeiodinase type 1 activity, adjusted mean (Monodeiodinase type 1; Liver, infused rats, adjusted group mean at the mean Ln (TSH) concentration): 106 | Cardiac monodeiodinase type 1 activity, response to increasing doses (in words) (Monodeiodinase type 1; heart, FIG. 2a, compared to T4, p<0.001): weak response | Increase of heart weight relative to body weight with increasing infusion rates (in words) (hypothyroid rats; compared with T4, p<0.01): less efficient | Heart (hypothyroid rats; 1.5 nmol/day/100 g BW): 0.76 ± 0.02 g | Heart (hypothyroid rats; 4.5 nmol/day/100 g BW): 0.83 ± 0.04 g | Heart (hypothyroid rats; 13.5 nmol/day/100 g BW): 0.94 ± 0.03 g | Heart (hypothyroid rats; 40.5 nmol/day/100 g BW): 0.98 ± 0.06 g | Heart/BW (%) (hypothyroid rats; infusion 1.5 nmol/day/100 g BW): 0.31 ± 0.01% | Heart/BW (%) (hypothyroid rats; infusion 4.5 nmol/day/100 g BW): 0.33 ± 0.02% | Heart/BW (%) (hypothyroid rats; infusion 13.5 nmol/day/100 g BW): 0.36 ± 0.01% | Heart/BW (%) (hypothyroid rats; infusion 40.5 nmol/day/100 g BW): 0.39 ± 0.02%
